Assay [1] concerns Rd 13 (DNA, aptamer) CGGGGGGAGGCGGAGGGAGGACTGGGGCTTCATTGACGTTCTTCACAGTAGGGGTAAGGGCTTAGGTGGTTGGTGCCTG
Briefly: competitive fluorescence anisotropy. Conditions: 140 mM Na+, 2 mM K+, 5 mM Mg2+, 2 mM Ca2+, 20 mM Tris pH 7.4, PosBD displaced, 1,000 pmol drug in 125 μl.

The test system of assay [2] is amino-Rd 13 (DNA, aptamer) CGGGGGGAGGCGGAGGGAGGACTGGGGCTTCATTGACGTTCTTCACAGTAGGGGTAAGGGCTTAGGTGGTTGGTGCCTG
Briefly: graphene field effect transistor, Dirac voltage shift. Conditions: 140 mM Na+, 2 mM K+, 5 mM Mg2+, 2 mM Ca2+; SELEX buffer (20 mM Tris pH 7.4, 0.05% Tween); Langmuir-Hill fit; also printed as 1.8 ± 0.5 μg/ml.

Assay [3] has as its system Rd 13 Scrambled (S) (DNA, aptamer) GCTGTGTGCGTGAGTGGAGTGCGCGCGAGAGTGAGTGCGGTGAGAGATTCGGTGTGCGTGTCGTGATGAATGCGACCGG
The experiment in a line: circular dichroism. As to conditions: 0.2 mM Mg2+; 20 mM Tris pH 7.4; 10 μM aptamer, 100 μM posaconazole; no CD change. For orientation: Circular dichroism is widely used to follow secondary structure.

For `CCC(C)n1ncn(-c2ccc(N3CCN(c4ccc(OCC5COC(Cn6cncn6)(c6ccc(Cl)cc6Cl)O5)cc4)CC3)cc2)c1=O` (stereo not shown), the binding entry in assay [1] (less than posaconazole) is listed as “weak”.

With `CC[C@@H]([C@H](C)O)n1ncn(-c2ccc(N3CCN(c4ccc(OC[C@@H]5CO[C@@](Cn6cncn6)(c6ccc(F)cc6F)C5)cc4)CC3)cc2)c1=O`, the binding result in assay [1] (greatest displacement) is reported as “yes”; in assay [3], “no”. In addition, the dissociation constant in assay [2] was 2.6 ± 0.7 µM.
